Values of other authors in PubChem BioAssay AID1259409 (Chemical Carcinogenesis Research Information System (CCRIS), 2018).

Tested on: rodent chemically induced tumor inhibition, incidence and multiplicity
Experiment: CCRIS tumor inhibitor studies

COc1cc([C@@H]2Oc3cc([C@H]4Oc5cc(O)cc(O)c5C(=O)[C@@H]4O)ccc3O[C@H]2CO)ccc1O
tumour outcome (control, treated, inhibition, significance) (Carcinogen: 1,2-DIMETHYLHYDRAZINE, 540-73-8, Dose [Inhibitor]: 0, 0.1% IN DIET FOR 32 WK BEGINNING AT 24 D OF AGE (STUDY DURATION: 32 WK), Route [Inhibitor]: ORAL, Species: RAT, Strain/Sex: SPRAGUE-DAWLEY/MALE, Target Tissue: Type of Lesion: COLON: ADENOCARCINOMA, Dose [Carcinogen]: 20 MG/KG 1/WK FOR 15 WK BEGINNING ON D 37, Promoter: NONE USED): 19/22 (86%), 11/16 (69%), 20%, not calculated | tumour outcome (control, treated, inhibition, significance) (Carcinogen: 1,2-DIMETHYLHYDRAZINE, 540-73-8, Dose [Inhibitor]: 0, 0.1% IN DIET FOR 32 WK BEGINNING AT 24 D OF AGE (STUDY DURATION: 32 WK), Route [Inhibitor]: ORAL, Species: RAT, Strain/Sex: SPRAGUE-DAWLEY/MALE, Target Tissue: Type of Lesion: SMALL INTESTINE: ADENOCARCINOMA, Dose [Carcinogen]: 20 MG/KG 1/WK FOR 15 WK BEGINNING ON D 37, Promoter: NONE USED): 18/22 (82%), 9/16 (56%), 32%, not calculated | tumour outcome (control, treated, inhibition, significance) (Carcinogen: N-BUTYL-N-(4-HYDROXYBUTYL)NITROSAMINE, 3817-11-6, Dose [Inhibitor]: 0, 1000 PPM IN DIET FOR 8 WK (STUDY DURATION: 32 WK), Route [Inhibitor]: ORAL, Species: MOUSE, Strain/Sex: ICR/MALE, Target Tissue: Type of Lesion: URINARY BLADDER: PAPILLOMA, Dose [Carcinogen]: 500 PPM IN DRINKING WATER FOR 6 WK BEGINNING 1 WK AFTER FIRST INHIBITOR DOSE, Promoter: NONE USED): 2/44 (5%), 1/34 (3%), 40%, not significant | tumour outcome (control, treated, inhibition, significance) (Carcinogen: N-BUTYL-N-(4-HYDROXYBUTYL)NITROSAMINE, 3817-11-6, Dose [Inhibitor]: 0, 1000 PPM IN DIET FOR 8 WK (STUDY DURATION: 32 WK), Route [Inhibitor]: ORAL, Species: MOUSE, Strain/Sex: ICR/MALE, Target Tissue: Type of Lesion: URINARY BLADDER: TRANSITIONAL CELL CARCINOMA, Dose [Carcinogen]: 500 PPM IN DRINKING WATER FOR 6 WK BEGINNING 1 WK AFTER FIRST INHIBITOR DOSE, Promoter: NONE USED): 17/44 (39%), 4/34 (12%), 69%, p< 0.01 | outcome (Carcinogen: N-BUTYL-N-(4-HYDROXYBUTYL)NITROSAMINE, 3817-11-6, Dose [Inhibitor]: 0, 1000 PPM IN DIET FOR 24 WK BEGINNING 1 WK POST FINAL CARCINOGEN DOSE (STUDY DURATION: 32 WK), Route [Inhibitor]: ORAL, Species: MOUSE, Strain/Sex: ICR/MALE, Target Tissue: Type of Lesion: URINARY BLADDER: PAPILLOMA, Dose [Carcinogen]: 500 PPM IN DRINKING WATER FOR 6 WK BEGINNING 1 WK AFTER FIRST INHIBITOR DOSE, Promoter: NONE USED): 2/44 (5), 5/30 (17%), -240%, not significant | tumour outcome (control, treated, inhibition, significance) (Carcinogen: N-BUTYL-N-(4-HYDROXYBUTYL)NITROSAMINE, 3817-11-6, Dose [Inhibitor]: 0, 1000 PPM IN DIET FOR 24 WK BEGINNING 1 WK POST FINAL CARCINOGEN DOSE (STUDY DURATION: 32 WK), Route [Inhibitor]: ORAL, Species: MOUSE, Strain/Sex: ICR/MALE, Target Tissue: Type of Lesion: URINARY BLADDER: TRANSITIONAL CELL CARCINOMA, Dose [Carcinogen]: 500 PPM IN DRINKING WATER FOR 6 WK BEGINNING 1 WK AFTER FIRST INHIBITOR DOSE, Promoter: NONE USED): 17/44 (39%), 5/30 (17%), 56%, p< 0.05 | outcome (Carcinogen: N-Butyl-N-(4-hydroxybutyl)nitrosamine, 3817-11-6, Dose [Inhibitor]: 200 mg/kg bw 1 wk before carcinogen, dose duration 51 wk, study duration 56 wk, Route [Inhibitor]: Oral (gavage) 5 d/wk, Species: Mouse, Strain/Sex: ICR/Male, Target Tissue: Type of Lesion: Urinary Bladder: carcinoma, Dose [Carcinogen]: 0, 0.5% in drinking water for 6 wk, Promoter: None): 52%, 7.7%, p=0.001

NC(Cc1c[nH]c2ccccc12)C(=O)O (stereo unspecified)
tumour outcome (control, treated, inhibition, significance) (Carcinogen: N-BUTYL-N-(4-HYDROXYBUTYL)NITROSAMINE, 3817-11-6, Dose [Inhibitor]: 5% DIET DAILY FOR 34 WK STARTING AT COMPLETION OF CARCINOGEN TREATMENT (STUDY DURATION: 38 WK), Route [Inhibitor]: ORAL, Species: RAT, Strain/Sex: F344/MALE, Target Tissue: Type of Lesion: URINARY BLADDER: PAPILLOMA, Dose [Carcinogen]: 0.01% IN DRINKING WATER FOR 4 WK, Promoter: NONE USED): 33%, 27%, 18%, not significant

COC1=CC(=O)[C@]2(C=C1OC)OC[C@H]1Oc3c(ccc4c3C=CC(C)(C)O4)C(=O)[C@H]12
tumour outcome (control, treated, inhibition, significance) (Carcinogen: 7,12-DIMETHYLBENZ[A]ANTHRACENE, 57-97-6, Dose [Inhibitor]: 0, 85 NMOL 2/WK BEGINNING 1 WK POST CARCINOGEN DOSE (STUDY DURATION: 20 WK), Route [Inhibitor]: DERMAL, Species: MOUSE, Strain/Sex: ICR/FEMALE, Target Tissue: Type of Lesion: SKIN: PAPILLOMA, Dose [Carcinogen]: 390 NMOL, Promoter: 12-O-TETRADECANOYLPHORBOL-13-ACETATE, 16561-29-8): 100%, 20%, 80%, not calculated

S=C=NCCCCCCCCc1ccccc1
tumour outcome (control, treated, inhibition, significance) (Carcinogen: 4-(METHYLNITROSAMINO)-1-(3-PYRIDYL)-1-BUTANONE, 64091-91-4, Dose [Inhibitor]: 0, 0.04 UMOL ONCE 2 HR PRIOR TO CARCINOGEN DOSE (STUDY DURATION: 16 WK), Route [Inhibitor]: GAVAGE, Species: MOUSE, Strain/Sex: STRAIN-A/FEMALE, Target Tissue: Type of Lesion: LUNG: ADENOMA, Dose [Carcinogen]: 10 UMOL IN 0.1 ML SALINE ONCE, Promoter: NONE USED): 100%, 100%, 0%, not significant | tumour outcome (control, treated, inhibition, significance) (Carcinogen: 4-(METHYLNITROSAMINO)-1-(3-PYRIDYL)-1-BUTANONE, 64091-91-4, Dose [Inhibitor]: 0, 0.1 UMOL ONCE 2 HR PRIOR TO CARCINOGEN DOSE (STUDY DURATION: 16 WK), Route [Inhibitor]: GAVAGE, Species: MOUSE, Strain/Sex: STRAIN-A/FEMALE, Target Tissue: Type of Lesion: LUNG: ADENOMA, Dose [Carcinogen]: 10 UMOL IN 0.1 ML SALINE ONCE, Promoter: NONE USED): 100%, 100%, 0%, not significant | tumour outcome (control, treated, inhibition, significance) (Carcinogen: 4-(METHYLNITROSAMINO)-1-(3-PYRIDYL)-1-BUTANONE, 64091-91-4, Dose [Inhibitor]: 0, 0.2 UMOL ONCE 2 HR PRIOR TO CARCINOGEN DOSE (STUDY DURATION: 16 WK), Route [Inhibitor]: GAVAGE, Species: MOUSE, Strain/Sex: STRAIN-A/FEMALE, Target Tissue: Type of Lesion: LUNG: ADENOMA, Dose [Carcinogen]: 10 UMOL IN 0.1 ML SALINE ONCE, Promoter: NONE USED): 100%, 90%, 10%, p<0.05

CSc1ccc(O)cc1
tumour outcome (control, treated, inhibition, significance) (Carcinogen: BENZO[A]PYRENE, 50-32-8, Dose [Inhibitor]: 0.03 MMOL/G OF DIET DAILY STARTING 7 D BEFORE AND CONTINUING THROUGH 3 D AFTER CARCINOGEN TREATMENT FOLLOWED BY OBSERVAT, Route [Inhibitor]: ORAL, Species: MOUSE, Strain/Sex: ICR/FEMALE, Target Tissue: Type of Lesion: FORESTOMACH: NEOPLASM, Dose [Carcinogen]: 1 MG IN 0.2 ML CORN OIL 2/WK FOR 4 WK, Promoter: NONE USED): 100%, 89%, 11%, not significant

CC(=O)O
tumour outcome (control, treated, inhibition, significance) (Dose [Inhibitor]: 0, 60 UMOL (MG) INJECTED WITH CARCINOGEN INTO THIGH OF BOTH HIND LIMBS (STUDY DURATION: 79 WK), Route [Inhibitor]: INTRAMUSCULAR, Species: RAT, Strain/Sex: F344/MALE, Target Tissue: Type of Lesion: INJECTION SITE: SARCOMA, Dose [Carcinogen]: 2.5 MG PER SITE INJECTED INTO THIGH OF BOTH HIND LIMBS, Promoter: NONE USED): 100%, 95%, 5%, not significant

Cc1ccc2oc(=O)ccc2c1
tumour outcome (control, treated, inhibition, significance) (Carcinogen: BENZO[A]PYRENE, 50-32-8, Dose [Inhibitor]: 0.034 MMOL/G IN DIET FOR 5 WK BEGINNING 1 WK PRIOR TO FIRST CARCINOGEN DOSE AND CONTINUING FOR 3 D POST LAST CARCINOGEN, Route [Inhibitor]: ORAL, Species: MOUSE, Strain/Sex: ICR/FEMALE, Target Tissue: Type of Lesion: FORESTOMACH: TUMOR, Dose [Carcinogen]: 1 MG IN 0.2 ML CORN OIL 2/WK FOR 4 WK, Promoter: NONE USED): 90%, 90%, 0%, not significant

Brc1c(Br)c(Br)c2c(c1Br)Oc1c(Br)c(Br)c(Br)c(Br)c1O2
tumour outcome (control, treated, inhibition, significance) (Carcinogen: 7,12-DIMETHYLBENZ[A]ANTHRACENE, 57-97-6, Dose [Inhibitor]: 0, 17 NMOL 2/WK APPLIED 1 HR PRIOR TO EACH PROMOTER DOSE FOR 20 WK (STUDY DURATION: 21 WK), Route [Inhibitor]: DERMAL, Species: MOUSE, Target Tissue: Type of Lesion: SKIN: TUMOR, Dose [Carcinogen]: 390 NMOL ONCE, Promoter: 12-O-TETRADECANOYLPHORBOL-13-ACETATE, 16561-29-8): 100%, 93%, 7%, not calculated
